Where “and” joins values, the source holds several entries; their conditions need not be identical. Equal entries are not always repeated.
Key:
[1] = target: α-Glucosidase from Saccharomyces cerevisiae; assay: α-Glucosidase inhibition assay (spectrophotometric, p-nitrophenyl-α-D-glucopyranoside); assay type: biochemical; details: mean ± spread, triplicate
Description: α-Glucosidase inhibition assay was performed spectrophotometrically. α-Glucosidase from Saccharomyces cerevisiae (Abcam, Cambridge, UK) was dissolved in phosphate buffer (pH 6.8, 50 mM). Test compounds were dissolved in DMSO. In 96-well microtiter plates, 20 µL of test sample, 20 µL of enzyme (20 mU/mL) and 135 µL of buffer were added and incubated for 15 minutes at 37 °C. After incubation, 25 µL of p-nitrophenyl-α-D-glucopyranoside (2 mM, Abcam) was added and change in absorbance was monitored for 20 min at 400 nm. Test compound was replaced by DMSO (10% final) as control. Deoxynojirimycin hydrochloride (Abcam) was used as a standard inhibitor. The assays were done in triplicate. IC50 values were calculated from non-linear regression curve of percentage inhibition versus log compound concentration.

[2] = target: T1, Rabbit muscle glycogen phosphorylase a (Oryctolagus cuniculus, UniProt P00489); assay: Glycogen phosphorylase enzyme assay (phosphate release, malachite green); assay type: biochemical; details: mean of three determinations
T1 construct: purchased Abcam
T1 sequence (P00489 2-843 limits assumed): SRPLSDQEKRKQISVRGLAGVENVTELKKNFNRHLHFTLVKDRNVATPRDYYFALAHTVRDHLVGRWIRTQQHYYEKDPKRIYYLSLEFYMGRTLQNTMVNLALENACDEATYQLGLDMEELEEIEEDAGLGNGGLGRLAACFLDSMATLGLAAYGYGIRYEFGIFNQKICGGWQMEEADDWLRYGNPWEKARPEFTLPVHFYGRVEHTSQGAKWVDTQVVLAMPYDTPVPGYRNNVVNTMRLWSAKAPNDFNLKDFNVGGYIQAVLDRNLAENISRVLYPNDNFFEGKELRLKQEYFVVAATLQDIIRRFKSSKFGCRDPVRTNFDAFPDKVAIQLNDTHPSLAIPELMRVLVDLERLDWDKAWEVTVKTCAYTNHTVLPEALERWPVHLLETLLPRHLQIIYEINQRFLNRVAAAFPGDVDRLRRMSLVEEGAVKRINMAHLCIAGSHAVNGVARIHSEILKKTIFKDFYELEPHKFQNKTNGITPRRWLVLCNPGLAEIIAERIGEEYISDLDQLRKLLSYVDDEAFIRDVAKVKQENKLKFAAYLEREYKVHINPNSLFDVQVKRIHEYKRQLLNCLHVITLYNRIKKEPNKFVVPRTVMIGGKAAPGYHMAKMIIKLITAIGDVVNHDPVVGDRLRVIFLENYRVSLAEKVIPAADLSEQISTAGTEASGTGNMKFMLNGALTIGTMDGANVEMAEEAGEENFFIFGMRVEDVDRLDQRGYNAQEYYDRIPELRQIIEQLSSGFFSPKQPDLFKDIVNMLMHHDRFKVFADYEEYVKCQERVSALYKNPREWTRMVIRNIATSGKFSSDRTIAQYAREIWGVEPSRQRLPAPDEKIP
Description: Rabbit muscle glycogen phosphorylase a (from Abcam, 0.475 mg/ mL) activity was measured in the direction of glycogen synthesis by the release of phosphate from glucose-1-phosphate using a 384-well plate at 22 °C in […] of buffer containing 50 mM Hepes (pH 7.2), 100 mM KCl, 2.5 mM EGTA, 2.5 Mm MgCl2, 0.25 Mm glucose-1-phosphate, and 1 mg/mL glycogen with a 30-min incubation time. Phosphate was measured at 620 nm, 5 minutes after the addition of […] of 1 MHCl containing 10 mg/mL ammonium molybdate and 0.38 mg/mL malachite green. Test compounds were added to the assay in […] of 14% DMSO. Compounds were tested against a deoxynojirimycin hydrochloride (Abcam) standard in 11 point concentration response curve in duplicate on two separate occasions. Data were analyzed using GraphPad Prism v.4.03, GraphPad Software, (La Jolla, CA, USA).
A nonlinear regression (curve fit) analysis with a sigmoidal dose response equation (variable slope) was applied to generate IC50 and hill slope values. […] Compounds were screened with maximal concentrations of […]. The assay was carefully monitored for signs of compound insolubility. The results are presented as mean values from three determinations.

[3] = tested on: Sprague-Dawley (SD) rats with streptozocin-induced diabetes; assay: In vivo antidiabetic screening, blood glucose level in STZ-induced diabetic rats; parameters: species or system rat; details: for Blood Glucose Level, Reading 1: 15 h fasting followed by 5-mg meal, before treatment; for Blood Glucose Level, Fasting: after fasting for 15 h, pretreatment; for Blood Glucose Level, Reading 2: second day, after oral treatment 40 mg/100 g body weight followed by 5-mg meal
Description: The compound (7b) was tested on Sprague-Dawley (SD) rats for the effect on the blood glucose level, as described in the experimental Section 3.8, and the results are reported in (Table 2) and (Figure 3). Blood glucose levels were measured after fasting for 15 h (fasting reading), followed by the administration of a 5-mg meal (reading 1). Moreover, a second day reading after treatment with normal saline, acarbose, or (7b) compound blood glucose level (reading 2) followed by a 5-mg meal, was measured. […] In addition, the blood glucose level after 15 h fasting followed by a meal of 5 mg (reading 1) was compared to the blood glucose levels under the same conditions, and following the administration of normal saline, acarbose or compound (7b). For the control non-diabetic non-treated group and the diabetic non- treated group, no significant difference between (readings 1 and 2) was shown. For the group of rats treated with acarbose or compound (7b) one hour before a meal, blood glucose levels decreased from 147 ± 2 to 136 ± 3.28 and 120 ± 0.88 mg/dL to 116 ± 0.57, respectively. […] Twenty male Sprague–Dawley (SD) rats were maintained in an air-conditioned room (25 °C) at a constant humidity (55–60%). All rats were provided with a standard rat diet containing 60% carbohydrate (w/w), 2% fat (w/w), 17.5% protein (w/w), 8% fiber (w/w), and water ad libitum. The experiments were performed in accordance with the internationally accepted standard ethical guidelines for laboratory animal use and care, as described in the European Community guidelines. The Institutional Animal Ethics Committee of Al-Azhar University approved the study protocols (approval No: 409/432, 3/2018). Diabetes was induced in 12 Sprague–Dawley (SD) male rats by a single intraperitoneal injection of 40 mg/kg streptozocin (STZ) dissolved in 0.1 M/L citrate buffer at a pH of 4.5. Three rats were injected with normal saline and vehicle only to serve as negative controls. The remaining diabetic rats (nine) were identified by an increase in blood glucose more than 200 ± 10 mg/dL after one week. Blood glucose levels were measured using One Touch Ultra 2 glucometer (Lifescan inc., Wayne, USA) every week for the following two weeks to confirm the diabetic status. Rats were 6–8 weeks of age and the average weight when starting the experiment was 200 ± 20 g. Twelve rats were randomly assigned to four groups. Group 1: non-diabetic non-treated (control). Group 2: Diabetic non-treated. Group 3: Diabetic and administrated acarbose before meals. Group 4: Diabetic and administrated our new compound before a meal. Briefly; the first group was injected with an IP vehicle only. The other three groups were injected with streptozocin (STZ) and developed diabetes. The second group was diabetic and untreated. The third group was diabetic rats treated with acarbose at 40 mg per 100 g body weight 30 min. before meal using oral tube. The fourth group administrated 40 mg/100 g body weight of the test compound (7b). Rats were fasted over 15 h and blood sugar levels were measured (pretreatment). For each rat, 5 mg standard rat diet was supplied to each rat and blood glucose levels were measured to detect increases after 1 hour. Rats were fed again with the same amount after 8 h. Food was removed to allow animals to fast again for 15 h. On the following day, groups 1 and two were not given any treatment, while group 3 rats were given acarbose (positive control) and group 4 were given the test compound (7b). Blood glucose levels were measured in tail vein blood samples taken from fasting rats (time point 0), then designated groups are fed either acarbose or the test compound, suspended in PBS and delivered using an oral tube. After half an hour, the rats were given five mg. Blood samples were taken after 1 hour. Blood glucose was expected to rise after meal and the effect of the drugs was evaluated according to their abilities to control post-meal excursions.

NS(=O)(=O)c1ccc(NC(=O)c2ccccc2NC(=O)c2ccccn2)cc1 [Compound 5a, N-(2-((4-Sulfamoylphenyl)carbamoyl)phenyl)picolinamide]
IC50 [1]: 47.7 nM

COC(=O)c1ccccc1NC(=O)c1ccccn1 [Compound 1, Methyl 2-(picolinamido)benzoate]
melting point: 210 to 212 °C
IC50 [1]: 735 nM and 736 nM
IC50 [2]: 541 ± 60 nM

OC[C@H]1NC[C@H](O)[C@@H](O)[C@@H]1O [1-Deoxynojirimycin, reference compound]
IC50 [2]: 55.6 ± 110 nM

O=C(Nc1ccccc1C(=O)Nc1ccc(S(=O)(=O)Nc2ccccn2)cc1)c1ccccn1 [Compound 5b, N-(2-((4-(N-(Pyridin-2-yl)sulfamoyl)phenyl)carbamoyl)phenyl)picolinamide]
IC50 [1]: 21.2 nM
IC50 [2]: 16.6 nM

O=C(Nc1ccccc1C(=O)NCc1ccccc1)c1ccccn1 [Compound 3a, N-(2-(Benzylcarbamoyl)phenyl)picolinamide]
IC50 [1]: 89.6 nM
IC50 [2]: 150 ± 70 nM

COc1ccc(CNC(=O)c2ccccc2NC(=O)c2ccccn2)cc1 [Compound 3b, N-(2-((4-Methoxybenzyl)carbamoyl)phenyl)picolinamide]
melting point: 225 to 227 °C
IC50 [1]: 22.3 nM

O=C(Nc1ccccc1C(=O)Nc1ccc(S(=O)(=O)Nc2nccs2)cc1)c1ccccn1 [Compound 5c, N-(2-((4-(N-(Thiazol-2-yl)sulfamoyl)phenyl)carbamoyl)phenyl)picolinamide]
melting point: 217 to 219 °C
IC50 [1]: 12.5 ± 10 nM

O=C(Nc1ccccc1C(=O)N/N=C/c1ccc(O)cc1O)c1ccccn1 [Compound 7b, (E)-N-(2-(2-(2,4-Dihydroxybenzylidene)hydrazine-1-carbonyl)phenyl)picolinamide]
Effect on blood glucose level compared with reference drug ([3]; 40 mg/100 g body weight oral before meal): succeeded in decreasing the blood glucose level of diabetic rats better than the reference oral antidiabetic drug, acarbose
Blood Glucose Level, Reading 1 [3]: 120 ± 0.88 mg/dL
Blood Glucose Level, Fasting [3]: 207 ± 0.88 mg/dL
Blood Glucose Level, Reading 2 [3]: 116 ± 0.57 mg/dL
melting point: 215 to 217 °C
IC50 [1]: 17.6 nM
IC50 [2]: 13.7 ± 30 nM

O=C(Nc1ccccc1C(=O)NCc1ccc(F)cc1)c1ccccn1 [Compound 3c, N-(2-((4-Fluorobenzyl)carbamoyl)phenyl)picolinamide]
IC50 [2]: 86.4 ± 20 nM

Cc1ccc(CNC(=O)c2ccccc2NC(=O)c2ccccn2)cc1 [Compound 3e, N-(2-((4-Methylbenzyl)carbamoyl)phenyl)picolinamide]
melting point: 275 to 278 °C
IC50 [2]: 262 ± 10 nM

O=C(Nc1ccccc1C(=O)N/N=C/c1ccccn1)c1ccccn1 [Compound 7c, (E)-N-(2-(2-(Pyridin-2-ylmethylene)hydrazine-1-carbonyl)phenyl)picolinamide]
melting point: 225 to 227 °C
IC50 [1]: 231 ± 570 nM
IC50 [2]: 86.4 nM

C[C@H]1O[C@H](O[C@H]2[C@H](O)[C@@H](O)[C@@H](O[C@H]3[C@H](O)[C@@H](O)C(O)O[C@@H]3CO)O[C@@H]2CO)[C@H](O)[C@@H](O)[C@@H]1N[C@H]1C=C(CO)[C@@H](O)[C@H](O)[C@H]1O (stereo partly shown) [Acarbose, reference compound]
Blood Glucose Level, Reading 1 [3]: 147 ± 2.0 mg/dL
Blood Glucose Level, Reading 1 ([3]; listed as acarbose): 147 ± 2 mg/dL
Blood Glucose Level, Fasting [3]: 204 ± 4.5 mg/dL
Blood Glucose Level, Reading 2 [3]: 136 ± 3.28 mg/dL

O=C(Nc1ccccc1C(=O)N/N=C/c1ccc(Cl)cc1Cl)c1ccccn1 [Compound 7d, (E)-N-(2-(2-(2,4-Dichlorobenzylidene)hydrazine-1-carbonyl)phenyl)picolinamide]
melting point: 212 to 214 °C
IC50 [1]: 78.4 ± 50 nM

NNC(=O)c1ccccc1NC(=O)c1ccccn1 [Compound 6, N-(2-(Hydrazinecarbonyl)phenyl)picolinamide]
melting point: 210 to 212 °C
IC50 ([1]; listed as 7): 416 nM
IC50 [2]: 582 ± 580 nM

O=C(Nc1ccccc1C(=O)NCc1ccc(Cl)cc1)c1ccccn1 [Compound 3d, N-(2-((4-Chlorobenzyl)carbamoyl)phenyl)picolinamide]
melting point: 233 to 235 °C
IC50 [1]: 94.7 nM
IC50 [2]: 177 ± 50 nM

O=C(Nc1ccccc1C(=O)N/N=C/c1ccccc1)c1ccccn1 [Compound 7a, (E)-N-(2-(2-Benzylidenehydrazine-1-carbonyl)phenyl)picolinamide]
melting point: 205 to 207 °C
IC50 [2]: 208 nM
